One experiment concerns K562. The experiment can be described thus: Antiproliferative activity against human K562 cells after 72 hrs by Alamar blue assay.
Another experiment deals with BXPC-3. The experiment is described as follows: Antiproliferative activity against human BxPC3 cells after 72 hrs by Alamar blue assay.
The nature of experiment [1]: Antiproliferative activity against human hTERT-HME1 cells after 72 hrs by Alamar blue assay.
The test system of a further experiment is NCI-H1299. The experiment can be described thus: Antiproliferative activity against human NCI-H1299 cells after 72 hrs by Alamar blue assay.
The test system of the next experiment is HCT-116. The experiment can be described thus: Antiproliferative activity against human HCT116 cells after 72 hrs by Alamar blue assay.
Experiment [2] in a line: Antiproliferative activity against human KB3-1 cells after 72 hrs by Alamar blue assay in presence of zosuquidar. The note with it: KB 3-1, 72 h.
Experiment [3] is described as follows: Antiproliferative activity against human KBV1 cells overexpressing MDR1 after 72 hrs by Alamar blue assay in presence of zosuquidar. As to conditions: KB-V1, 72 h.
Experiment [4] can be described thus: Antiproliferative activity against human KB3-1 cells after 72 hrs by Alamar blue assay. The note with it: KB 3-1, 72 h.
Experiment [5] can be described thus: Drug resistant ratio of EC50 for human KBV1 cells overexpressing MDR1 to EC50 for KB3-1 cells. In kind it is functional, cell-based.
Experiment [6] can be described thus: Antiproliferative activity against human KBV1 cells overexpressing MDR1 after 72 hrs by Alamar blue assay. The note with it: KB-V1, 72 h.
Experiment [7] has as its target T1, Kinesin-like protein KIF11 (Homo sapiens, UniProt P52732).
T1 sequence (P52732 whole entry): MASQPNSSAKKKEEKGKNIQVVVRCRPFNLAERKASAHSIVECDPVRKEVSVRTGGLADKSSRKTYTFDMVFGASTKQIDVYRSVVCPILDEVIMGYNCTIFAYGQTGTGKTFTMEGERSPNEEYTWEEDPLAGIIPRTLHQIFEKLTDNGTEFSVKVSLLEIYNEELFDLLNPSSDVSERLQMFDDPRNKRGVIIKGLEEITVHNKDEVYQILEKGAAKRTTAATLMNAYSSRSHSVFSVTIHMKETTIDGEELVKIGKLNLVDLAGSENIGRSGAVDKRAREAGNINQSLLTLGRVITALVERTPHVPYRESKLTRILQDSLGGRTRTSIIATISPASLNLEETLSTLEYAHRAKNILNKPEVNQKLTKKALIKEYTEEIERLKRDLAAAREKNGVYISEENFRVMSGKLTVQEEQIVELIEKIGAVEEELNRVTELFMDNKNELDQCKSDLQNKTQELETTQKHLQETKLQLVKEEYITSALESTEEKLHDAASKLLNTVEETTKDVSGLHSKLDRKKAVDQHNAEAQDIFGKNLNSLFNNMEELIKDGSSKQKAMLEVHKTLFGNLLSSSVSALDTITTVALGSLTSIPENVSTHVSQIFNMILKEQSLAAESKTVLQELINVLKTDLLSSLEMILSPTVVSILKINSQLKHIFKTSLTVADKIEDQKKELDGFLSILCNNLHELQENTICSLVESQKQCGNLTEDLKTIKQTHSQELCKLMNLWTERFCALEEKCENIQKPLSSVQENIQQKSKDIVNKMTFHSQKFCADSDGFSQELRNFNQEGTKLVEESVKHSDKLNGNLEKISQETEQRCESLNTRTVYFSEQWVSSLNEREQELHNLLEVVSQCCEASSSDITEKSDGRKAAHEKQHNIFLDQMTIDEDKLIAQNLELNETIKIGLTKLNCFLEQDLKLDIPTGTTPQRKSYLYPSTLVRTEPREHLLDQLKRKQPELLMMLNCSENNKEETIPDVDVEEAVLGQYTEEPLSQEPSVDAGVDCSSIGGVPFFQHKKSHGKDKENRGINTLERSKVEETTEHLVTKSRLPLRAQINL
The experiment is described as follows: Inhibition of human kinesin Eg5.

For the compound `O=C1CCCC2=C1C(c1cccc(O)c1)NC(=S)N2` (racemic), the EC50 came out at 4780 nM in the experiment with K562 (Homo sapiens, K562, 72 h); 2070 nM in the experiment on BXPC-3 (Homo sapiens, BXPC-3, 72 h); 2440 nM in experiment [1] (Homo sapiens, HME1, 72 h); 4900 nM with NCI-H1299 (Homo sapiens, NCI-H1299, 72 h); 1810 nM in the experiment with HCT-116 (Homo sapiens, HCT-116, 72 h).

With `CC1=C(C(=O)c2ccc(F)c(F)c2)C(c2cccc(O)c2)NC(=S)N1C` (stereo in doubt; form 2), the half-maximal effective concentration (EC50) with K562 (k562) stood at 820 nM; in the experiment with BXPC-3 (bxpc-3) it was 736 nM; in experiment [1] (hme1), 223 nM; with NCI-H1299 (nci-h1299) it was 783 nM; in the experiment on HCT-116 (hct-116), 327 nM.

On to `CC1=C(C(=O)c2ccccc2)C(c2cccc(O)c2)NC(=S)N1C` (stereo in doubt; form 1), for which the half-maximal effective concentration (EC50) with K562 (k562) was 5690 nM; with BXPC-3 (bxpc-3), 5000 nM; in experiment [1] (hme1) it was 1780 nM; in the experiment on NCI-H1299 (nci-h1299), 6890 nM; in the experiment on HCT-116 (hct-116) it was 1830 nM.

Consider `CC[C@]1(O)C[C@@H]2CN(CCc3c([nH]c4ccccc34)[C@@](C(=O)OC)(c3cc4c(cc3OC)N(C)[C@H]3[C@@](O)(C(=O)OC)[C@H](OC(C)=O)[C@]5(CC)C=CCN6CC[C@]43[C@@H]65)C2)C1` [VINBLASTINE], for which the 50% effective concentration (EC50) in [2] was determined as 8.5 nM; in experiment [3], 13 nM; in [4] it was 12.6 nM; in experiment [6], 2040 nM. Also, the ratio in [5] was 162.

In turn, `CCOC(=O)C1=C(C)NC(=S)N[C@@H]1c1cccc(O)c1` came in with an IC50 in [7] of 30000 nM.

As for `CC1=C(C(=O)c2cccc(F)c2)C(c2cccc(O)c2)NC(=S)N1C` (stereo unspecified), the EC50 in the experiment with K562 (Homo sapiens, K562, 72 h) came out at 2740 nM; in the experiment on BXPC-3 (Homo sapiens, BXPC-3, 72 h), 2840 nM; in [1] (Homo sapiens, HME1, 72 h) it was 2820 nM; in the experiment with NCI-H1299 (Homo sapiens, NCI-H1299, 72 h), 2770 nM; with HCT-116 (Homo sapiens, HCT-116, 72 h) it was 1290 nM.

As to `CC1=C(C(=O)c2ccccc2)C(c2cccc(O)c2)NC(=S)N1C` (stereo in doubt; form 2), the EC50 is 11400 nM in the experiment with K562 (k562); 14400 nM in the experiment with BXPC-3 (bxpc-3); above 50000 nM in [1] (hme1); 18100 nM in the experiment with NCI-H1299 (nci-h1299); 6500 nM with HCT-116 (hct-116).

As for `CC1=C(C(=O)c2ccccc2)C(c2cccc(O)c2)NC(=S)N1C` (stereo in doubt; form 3), the EC50 with K562 (k562) came out at 3700 nM; with BXPC-3 (bxpc-3), 3600 nM; in experiment [1] (hme1) it was 1190 nM; in the experiment with NCI-H1299 (nci-h1299), 4610 nM; with HCT-116 (hct-116), 1740 nM.

Consider `CC1=C(C(=O)c2ccc(F)cc2)C(c2cccc(O)c2)NC(=S)N1C` (stereo unspecified), for which the concentration for a half-maximal effect (EC50) with K562 (Homo sapiens, K562, 72 h) was 2620 nM; in the experiment on BXPC-3 (Homo sapiens, BXPC-3, 72 h), 2160 nM; in experiment [1] (Homo sapiens, HME1, 72 h) it was 2540 nM; in the experiment with NCI-H1299 (Homo sapiens, NCI-H1299, 72 h) it was 2390 nM; in the experiment on HCT-116 (Homo sapiens, HCT-116, 72 h) it was 951 nM.

With `CCOC(=O)C1=C(C)NC(=S)NC1c1cccc(O)c1` (racemic) [MONASTROL], the EC50 is above 100 nM in the experiment on K562 (Homo sapiens, K562, 72 h); above 100 nM in the experiment on BXPC-3 (Homo sapiens, BXPC-3, 72 h); 56500 nM in experiment [2]; 45400 nM in experiment [3]; 85100 nM in experiment [4]; 45100 nM in [1] (Homo sapiens, HME1, 72 h). For the same compound, the EC50 was above 100 nM with NCI-H1299 (Homo sapiens, NCI-H1299, 72 h); 99100 nM in experiment [6]; 24200 nM in the experiment with HCT-116 (Homo sapiens, HCT-116, 72 h). For the same compound, the ratio in [5] was found to be 1.2.

With `CC1=C(C(=O)c2ccc(F)c(F)c2)C(c2cccc(O)c2)NC(=S)N1C` (racemic), the EC50 with K562 (k562) was determined as 1150 nM; in the experiment with BXPC-3 (bxpc-3) it was 601 nM; in experiment [2] it was 800 nM; in [3], 671 nM; in experiment [4], 832 nM; in experiment [1] (hme1), 247 nM. Also, the figures for the concentration for a half-maximal effect (EC50) (in the experiment with NCI-H1299 (nci-h1299); in experiment [6]; with HCT-116 (hct-116)) were 1360 nM, 2080 nM and 387 nM, respectively. Also, the ratio in experiment [5] stood at 2.5.

In the case of `CC1=C(C(=O)c2ccc(F)c(F)c2)C(c2cccc(O)c2)NC(=S)N1C` (stereo in doubt; form 1), the EC50 in the experiment with K562 (k562) was 26600 nM; in the experiment on BXPC-3 (bxpc-3) it was 33700 nM; in [1] (hme1) it was above 100 nM; in the experiment with NCI-H1299 (nci-h1299) it was 33000 nM; with HCT-116 (hct-116), 15200 nM.
